US20230277863A1, “Use Of Photosensitizers For Treatment Of Viral Respiratory Infections” (priority 2020, published 2023)

Tests used:
BCoV strain L9 = test: Inactivation of bovine coronavirus in infected U373 cells, photosensitizer plus 810 nm laser irradiation; conditions: for residual virus: 100 joule/cm^2, 0.3 watt/cm^2
SARS-CoV-2 = test: Treatment of a human subject suffering from COVID-19; format: in vivo; conditions: one patient, 3 days, every 6 hours
[1] = test system: SARS-CoV-2/Germany strain; test: Inactivation of SARS-CoV-2 in infected Vero E6 cells, methylene blue plus broadband LED irradiation; conditions: for mean reduction factor (RF): broadband LED (Ledlenser P6), SARS-CoV-2-infected Vero E6 cells; for inactivation of the SARS-CoV-2: corresponds to the mean RF
bovine coronavirus = test: Inactivation of bovine coronavirus in infected cells using non-coherent LED light; format: cell-based; conditions: broadband LED light (non-coherent), 10000 Lux, 2 min of irradiation
Method: In a further set of experiments, the U737 cells were treated under the conditions as shown in the table of FIG. 1 using irradiation with either a monochromatic LED device at 590 nm or a broadband LED device (non-coherent light in each case). Light intensity was 10000 Lux in both cases.

[2] = 0.01% photosensitizer, without radiation, immediately wrapped in aluminium foil, stored and frozen in the dark

## CN(C)c1ccc2nc3ccc(=[N+](C)C)cc-3sc2c1 [methylene blue]
BCoV strain L9; 0.0001% (w/v) photosensitizer, 810 nm, 100 joule/cm^2, 0.3 watt/cm^2, 5.46 min, BCoV-infected U373 cells
  mean reduction factor: ≥ 6.00 log10 steps
BCoV strain L9; 0.0001% photosensitizer samples, titration on U373 cells
  cytotoxicity (CT): no cytotoxicity
BCoV strain L9; 0.0001% photosensitizer, 810 nm
  residual virus: only minimal residual virus could still be detected in one sample
BCoV strain L9; 0.0001% photosensitizer, 810 nm, 100 joule/cm^2, corresponds to the mean RF
  virus inactivation: ≥ 99.999%
BCoV strain L9; 0.001% (w/v) photosensitizer, 810 nm, 100 joule/cm^2, 0.3 watt/cm^2, 5.46 min, BCoV-infected U373 cells
  reduction factor (RF): 5.08 log10 steps
BCoV strain L9; 0.01% (w/v) photosensitizer, 810 nm, 100 joule/cm^2, 0.3 watt/cm^2, 5.46 min, BCoV-infected U373 cells
  reduction factor (RF): 4.08 log10 steps
BCoV strain L9; [2]
  reduction factor (RF): 0.38±0.64
  residual virus / effectiveness: substantial amounts of residual virus and no effectiveness
BCoV strain L9; 0.1% (w/v) photosensitizer, 810 nm, 100 joule/cm^2, 0.3 watt/cm^2, 5.46 min, BCoV-infected U373 cells
  reduction factor (RF): 3.08 log10 steps
BCoV strain L9; 0.1% (w/v) to 0.001% (w/v) photosensitizer, 810 nm
  residual virus: no residual virus was found
SARS-CoV-2; 3 μg methylene blue nasal/throat spray plus broadband LED ca. 6000 Lux, CT before treatment 19
  PCR SARS-CoV-2 cycle threshold (CT) after treatment: 35
SARS-CoV-2; 3 μg methylene blue spray plus broadband LED, before: dry cough, headache, 38.2° C., medium general condition
  condition of patient after treatment: no cough, no headache, normalized body temperature, normal general condition
[1]; 0.0001% photosensitizer
  mean reduction factor (RF): ≥ 4.67
  inactivation of the SARS-CoV-2: 99.99%
[1]; 0.001% or 0.0001% photosensitizer, irradiation 1 minute, 20,000 lx, initial virus titre 6.92 log 10 TCID50/ml, Vero E6 cells
  residual virus: No residual virus was found
[1]; 0.001% photosensitizer
  mean reduction factor (RF): ≥ 4.67
  inactivation of the SARS-CoV-2: 99.99%
Bovine coronavirus
  reduction of residual virus: 3 log10 steps
